Key:
[1] = tested on: neutrophil adherence to human umbilical vein endothelial cells (HUVEC); assay: Adherence of neutrophils to cultured (TNF alpha stimulated) endothelial cells; assay type: cell-based; details: for role of RGD in blocking neutrophil adherence (in words) / inhibition of neutrophil adherence: 20-mer peptides, 0.5 mM; for inhibition of neutrophil adherence (in words): peptides 0.5 mM (Example 9); for neutrophil adherence, peptide plus 9D4: peptide 5 μg/ml + 9D4 10 μg/ml; for neutrophil adherence, peptide plus 12H1: peptide 5 μg/ml + 12H1 10 μl of ascites; for neutrophil adherence, peptide plus IB4: peptide 5 μg/ml + IB4 10 μg/ml; for neutrophil adherence, single agent: peptide 5 μg/ml or antibody alone (IB4 10 μg/ml, 12H1 10 μl of ascites, 9D4 10 μg/ml); for additive reduction of neutrophil adherence, peptide together with IB4: with anti-CD18 mAb IB4 (50 μg/ml); for maximal inhibition of neutrophil attachment: concentration series (FIG. 25B)
Method: FIG. 17 is a bar graph representation of the inhibition of neutrophil adherence to activated endothelial cells by FHA, Factor X- and FHA- derived peptides. The concentration of inhibiting substances was: peptides 0.5 mM, native FHA 0.3 μM. Values represent the mean±standard deviation of 4 experiments with 5 wells/peptide.
FIG. 18 is a graphical representation of the FHA, FHA- or Factor X-peptide concentration effects on the inhibition of neutrophil adherence to activated endothelial cells. FHA peptide II monomer (Square) and trimer (Diamond), Factor X peptide II (Circle) at 10^-9 μM to 0.5 mM; native FHA at 10^-6 to 3×10^2 μM (triangle). Values represent the mean of 3 experiments with 5 wells/peptide (standard deviations <15%).
FIG. 25 is a graphical representation of the inhibition of neutrophil adherence to activated endothelial cells by FHA and FHA peptides. FIG. 25A: Peptide concentrations were 0.5 mM (FHA 0.2 μM). Values represent mean±standard deviation of four experiments with 5 wells/peptide; FIG. 25B represents the mean±standard deviation of triplicate experiments with 5 wells/peptide. Native FHA (.quadrature.); FHA peptide Ca (.largecircle.).
Human umbilical vein endothelial cells (HUVEC, first passage, Clonetics, San Diego, Calif.) were subcultured at confluence into Terasaki tissue culture wells. After 24 hours, confluent monolayers were used for adherence assays. Monolayers were stimulated with 10 ng/ml TNF alpha (Boehringer Mannheim, Indianapolis, Ind.) at 37° C. for four hours. 30 μl of human neutrophils (10^6 /ml) were labeled with fluorescein by the method of Lo et al. (1991), J. ExP. Med. 173 1493-1500, and preincubated for 15 minutes at 37° C. with 20 μl of peptides (0.5 mM in HAP) or HAP (phosphate buffered saline containing 0.5 mg/ml human serum albumin, 3 mM glucose, and 0.3 U/ml aprotinin) as a control buffer. For some experiments, endothelial cells were pretreated from 10 minutes with Factor X or antibodies against Factor X receptor (EPR-1; Altieri et al. (1990), J. Immunol. 145, 246-253) 12H1 and 9D4 (obtained from Dr. D. Altieri, Scripps Research Institute, LaJolla, Calif.) and then washed. Neutrophils were allowed to adhere to the monolayer for 15 mins. at 37° C. and unbound cells were removed by submersion of the plate in PBS buffer. The number of adherent neutrophils was counted in a 40× microscope field and expressed as a percentage of adherence in control wells with neutrophils treated with HAP buffer alone. The mAb IB4 against CD18 (50 μg/ml; Merck Inc., Rahway, N.J.) served as a positive control.
The ability of FHA peptides and anti-CD18 or anti-Factor X receptor antibodies to interact cooperatively to inhibit neutrophil adherence to endothelial cells was assessed by measuring neutrophil adherence to endothelial cells in the presence of antibody as well as antibody plus peptide. […] Anti-Factor X receptor mAb 12H1 (10 μl of ascites) or 9D4 (10 μg/ml) were added to the endothelial cell monolayers 10 min before the assay. The peptides were added at 5 μg/ml. The results are shown in Table 8 where the numerical values are in % of control binding.
The procedures for determining the neutrophil adherence to cultured endothelial cells and the transendothelial migration of neutrophils were identical with those of Example 9. Control values were the same as those shown in Example 9.

[2] = tested on: blood brain barrier permeability (CSF protein); assay: Rabbit model for meningitis: protein in CSF (blood brain barrier permeability); assay type: in vivo, New Zealand white rabbits; details: for Total protein in CSF, 6 hours: 6 hours after inoculation (Example 11, 1 μM peptide; FHA 0.1 μM); for Total protein in CSF, 7 hours: 7 hours after inoculation (Example 11, 1 μM peptide; FHA 0.1 μM); for protein influx into CSF and generation of lactate (in words): 10 μM peptides (Table 10); for Protein in CSF: 6 hours after challenge
Method: The rabbit model was performed according to an established protocol. Specific pathogen free, New Zealand white rabbits (2 kg; Hare Marland, Nutley, N.J.) were anesthetized with valium (2.5 mg/kg, subcutaneously, Hoffman-LaRoche, Nutley, N.J.), ketamine (35 mg/kg, intra-muscularly, Aveco, Fort Dodge, Iowa) and xylazine (5 mg/kg, intramuscularly, Miles Laboratories, Shawnee, Kans.) and a helmet of dental acrylic was affixed to the calvarium. Twenty four hours later, the rabbits were anesthetized with ethyl carbamate (1.75 g/kg; Aldrich Chemical Co., Milwaukee, Wis.) and pentobarbital (15 mg/kg; Abbott Laboratories, Abbott Park, Ill.) and placed in a stereotaxic frame. A spinal needle was introduced into the cisterna magna and 300 μl of CSF was withdrawn. The animals were challenged intracisternally with 10^8 heat killed, unencapsulated pneumococcus strain R6 introduced in 200 μl of saline (time 0). One hour later, animals were treated with peptides dissolved in 1 ml of saline by intravenous injection into the right marginal ear vein. The concentration of FHA was 0.1 μM and that of the FHA Ia, Factor X II, and scrambled FHA II peptides was 10 μM. For the acetyl-FHA II, acetyl/amide-FHA II, dimer of FHA II and trimer of FHA II peptides, the concentration was 10^-3 μM. The concentration of FHA II is given in the results section. Samples of CSF were withdrawn at hourly intervals after pneumococcal inoculation and leukocyte density was measured using a cell counter (Coulter Electronics Inc., Hialeah, Fla.). CSF samples were centrifuged at 10,000×g for 5 minutes and the supernatant was stored at -70° C. until assayed for protein concentration using the bicinchoninic acid method (ECA Kit, Pierce Chemical Co., Rockford, Ill.) and for lactate concentration (Lactate Detection Kit, Sigma, St. Louis, Mo.). Statistically significant differences between treatments were determined by a one way analysis of variance test.
Loss of barrier function of the cerebral capillary endothelium during inflammation is reflected by an influx of serum proteins into the CSF. […] To examine if the peptides were able to ameliorate these measures of cerebral injury, CSF protein and lactate concentrations were measured hourly in peptide-treated and control animals (Table 10).
Mean values for CSF lactate and protein at time 0 were 18.6±5.8 and 0.8±0.2 respectively. Ten control animals received phosphate-buffered saline. The concentration of FHA II intravenously injected one hour after challenge with pneumococci was 10 μM. Values represent mean±standarddeviation of concentrations in CSF at 6 hours after pneumococcal challenge (n≥4 for peptide treated animals; n=4 for FHA). *Statistically significant difference as compared to control at p<0.02 (Mann-Whitney test).
Again, mean values for CSF lactate and protein at time 0 were 18.6±5.8 and 0.8±0.2, respectively. Ten control animals received phosphate-buffered saline. The concentrations of FHA II intravenously injected was 10^-3 μM. Values represent mean±standard deviation of concentrations in CSF at 6 hours after pneumococcal administration (n≥4 per group).
The anti-inflammatory effects of the administered peptides were assessed in the rabbit model for meningitis by the procedures described in Example 10. The animals received 1 ml of 1 uM peptide intravenously. In a slight departure from the protocol described in Example 10, samples of blood were drawn from the left marginal ear vein 30 minutes after the administration of the peptides to determine peripheral leukocyte concentrations.
Values represent mean ±standard deviation of at least four animals per group. ^1 Time after intracisternal inoculation of pneumococci. *Statistically significant difference as compared to control at p<0.02 (Mann-Whitney test).

## AADPHQGVLAQGDIIMDAKG [FHA Cc]
[1]
  role of RGD in blocking neutrophil adherence (in words): activity was detectable above background but was not statistically different from buffer alone
[2]
  Total protein in CSF, 6 hours: 1.36 ± 0.16 mg/mL
  Total protein in CSF, 7 hours: 1.90 ± 0.22 mg/mL

## Ac-ETKEVDG-NH2 [Acetyl/Amide-FHA II]
[1]
  inhibition of neutrophil adherence (in words): significantly enhanced the ability of peptide FHA II to block neutrophil adherence to endothelia
[2]
  protein influx into CSF and generation of lactate (in words): significantly reduced protein influx into the CSF and generation of lactate
[2]; peptides 10 μM, FHA 0.1 μM
  Protein in CSF: 1.2 ± 0.6 mg/ml CSF

## DEETVK [scrambled FHA II, reference compound]
[1]
  inhibition of neutrophil adherence (in words): did not interfere with neutrophil binding
[2]; peptides 10 μM, FHA 0.1 μM
  Protein in CSF: 1.9 ± 0.3 mg/ml CSF

## ETKEVDG [FHA II]
[1]
  neutrophil adherence, peptide plus 9D4: 45 ± 9 % of control binding
  neutrophil adherence, peptide plus 12H1: 67 ± 13 % of control binding
  neutrophil adherence, peptide plus IB4: 11 ± 6 % of control binding
  neutrophil adherence, single agent: 40 ± 23 % of control binding
  additive reduction of neutrophil adherence, peptide together with IB4: > 80±10%
[2]
  protein influx into CSF and generation of lactate (in words): significantly reduced protein influx into the CSF and generation of lactate
[2]; 10^-3 μM
  protein and lactate in CSF (in words): ineffective at this dose
  Protein in CSF: 2.45 ± 0.22 mg/ml CSF
[2]; peptides 10 μM, FHA 0.1 μM
  Protein in CSF: 1.4 ± 0.6 mg/ml CSF

## GTLLLRNDALTENGTVTISA [FHA Cd]
[1]
  inhibition of neutrophil adherence: < 15%
[2]
  Total protein in CSF, 6 hours: 1.71 ± 0.19 mg/mL
  Total protein in CSF, 7 hours: 2.03 ± 0.57 mg/mL

## GYDTKQEDG [Factor X II]
[2]
  protein influx into CSF and generation of lactate (in words): no significant reduction
[2]; peptides 10 μM, FHA 0.1 μM
  Protein in CSF: 1.6 ± 0.7 mg/ml CSF

## LGYQAK (UniProt P12255 1979-1984, looked up, fragment) [FHA Ia]
[1]
  neutrophil adherence, peptide plus 9D4: 63 ± 17 % of control binding
  neutrophil adherence, peptide plus 12H1: 64 ± 12 % of control binding
  neutrophil adherence, peptide plus IB4: 20 ± 7 % of control binding
  neutrophil adherence, single agent: 63 ± 12 % of control binding
  inhibition of neutrophil adherence (in words): significantly more active than the Factor X peptide I
  additive reduction of neutrophil adherence, peptide together with IB4: > 80±10%
[2]
  protein influx into CSF and generation of lactate (in words): no significant reduction
[2]; peptides 10 μM, FHA 0.1 μM
  Protein in CSF: 1.8 ± 0.4 mg/ml CSF

## RADPHQGVLAQGDIIMDAKG [FHA Cb]
[1]
  role of RGD in blocking neutrophil adherence (in words): activity was decreased by half
[2]
  Total protein in CSF, 6 hours: 1.91 ± 0.24 mg/mL
  Total protein in CSF, 7 hours: 2.28 ± 0.28 mg/mL

## RGDPHQGVLAQGDIIMDAKG [FHA Ca]
[1]
  inhibition of neutrophil adherence: 47±7%
  maximal inhibition of neutrophil attachment: ~ 50%
[2]; 1 μM, entire observation period
  influx of serum protein into CSF (in words): reduced the influx of serum protein significantly during the entire observation period
[2]
  Total protein in CSF, 6 hours: 1.18 ± 0.39 mg/mL
  Total protein in CSF, 7 hours: 1.69 ± 0.41 mg/mL

## native FHA: Filamentous hemagglutinin, 220kD surface associated protein of Bordetella pertussis (List Biologicals)
[1]
  concentration at which loss of activity (≤20% inhibition) occurred: 10^-3 μM
  maximal inhibition of neutrophil attachment: ~ 50%
[1]; native FHA 25 μg/ml = 0.3 μM
  reduction of neutrophil binding to HUVEC: 51±8%
[1]; native FHA 50 ug/ml, 0.2 uM
  inhibition of adherence of neutrophils to endothelial cells: 51±7%
[2]
  protein influx into CSF and generation of lactate (in words): significantly protective for protein influx and lactate generation
  Total protein in CSF, 6 hours: 1.70 ± 0.33 mg/mL
  Total protein in CSF, 7 hours: 1.86 ± 0.76 mg/mL
[2]; peptides 10 μM, FHA 0.1 μM
  Protein in CSF: 1.3 ± 0.3 mg/ml CSF
